Measured values from BindingDB's records for doi:10.1016/0014-2999(86)90335-3 (Janssen Pharmaceutica, 1986).
“And” between values parts separate entries of the source, which are not always exact repeats. Identical values can stand only once.

Key:
[1] = biological target: T1, Alpha-1A adrenergic receptor (Rattus norvegicus, UniProt P43140)
T1 sequence (P43140 whole entry): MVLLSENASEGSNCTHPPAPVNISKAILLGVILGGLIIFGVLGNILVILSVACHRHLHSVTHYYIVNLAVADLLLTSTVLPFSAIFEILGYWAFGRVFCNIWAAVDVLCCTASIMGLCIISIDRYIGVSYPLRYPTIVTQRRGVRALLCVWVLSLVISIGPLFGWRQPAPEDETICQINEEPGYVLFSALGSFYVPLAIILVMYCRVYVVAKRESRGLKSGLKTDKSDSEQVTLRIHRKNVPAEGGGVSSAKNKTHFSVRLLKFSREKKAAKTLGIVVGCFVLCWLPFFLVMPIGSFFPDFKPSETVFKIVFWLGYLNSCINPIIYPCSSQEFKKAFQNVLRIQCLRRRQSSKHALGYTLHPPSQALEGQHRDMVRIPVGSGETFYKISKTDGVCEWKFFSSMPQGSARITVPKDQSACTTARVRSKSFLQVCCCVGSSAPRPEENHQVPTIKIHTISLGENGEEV

[2] = biological target: T2, Alpha-2C adrenergic receptor (Rattus norvegicus, UniProt P22086)
T2 sequence (P22086 whole entry): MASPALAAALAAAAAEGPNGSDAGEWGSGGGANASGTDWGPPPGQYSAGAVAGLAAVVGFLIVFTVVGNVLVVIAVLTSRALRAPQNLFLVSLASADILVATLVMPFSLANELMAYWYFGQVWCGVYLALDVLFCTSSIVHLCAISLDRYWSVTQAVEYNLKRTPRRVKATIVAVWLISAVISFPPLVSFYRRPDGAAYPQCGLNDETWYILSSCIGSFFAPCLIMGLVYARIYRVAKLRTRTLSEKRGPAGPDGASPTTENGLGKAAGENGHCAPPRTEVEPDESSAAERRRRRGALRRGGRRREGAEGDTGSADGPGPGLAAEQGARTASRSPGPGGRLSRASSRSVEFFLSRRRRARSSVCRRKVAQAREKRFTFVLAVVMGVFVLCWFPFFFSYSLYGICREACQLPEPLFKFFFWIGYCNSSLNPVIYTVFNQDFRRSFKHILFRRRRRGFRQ

Structure (SMILES)	Ki [1]	Ki [2]
Cc1ccc2nc(C)c(CCN3CCC(C(=O)c4ccc(F)cc4)CC3)c(=O)n2c1 [CAS_72005]	7.9 nM	10 nM and 2.5 nM and 2.8 nM
CS(=O)(=O)c1ccc2c(c1)N(CCCN1CCC(C(N)=O)CC1)c1ccccc1S2 [NSC_26388]	2.5 nM	
N#Cc1ccc2c(c1)N(CCCN1CCC(O)CC1)c1ccccc1S2	4.1 nM	
Cc1nc2n(c(=O)c1CCN1CCC(C(=O)c3ccc(F)cc3)CC1)CCS2 [CAS_86487-64-1]	32 nM	
c1ccc2c(c1)OCC(C1=NCCN1)O2 (configuration not stated)	1000 nM	
O=C(c1ccc(F)cc1)C1CCN(CCCCn2c(=O)[nH]c3ccccc3c2=O)CC1 [CAS_87051-46-5]	0.45 nM	500 nM and 400 nM and 66 nM and 60 nM
CN1CCN(CC/C=C2/c3ccccc3Sc3ccc(S(=O)(=O)N(C)C)cc32)CC1 [MLS000028463]	25 nM	1200 nM and 1400 nM
Cc1nc2ccccn2c(=O)c1CCN1CCC(C(=O)c2ccc(F)cc2)CC1	20 nM	7.9 nM and 4.5 nM and 18 nM and 20 nM
O=C(c1ccc(F)cc1)C1CCN(CCn2c(=S)[nH]c3ccccc3c2=O)CC1		290 nM and 200 nM and 280 nM and 71 nM
CN1C[C@H](C(=O)N[C@]2(C)O[C@@]3(O)[C@@H]4CCCN4C(=O)[C@H](Cc4ccccc4)N3C2=O)C=C2c3cccc4[nH]cc(c34)C[C@H]21 [12'-hydroxy-2'-methyl-5'alpha-(phenylmethyl)ergotaman-3',6',18-trione]	25 nM	12 nM and 4 nM and 3.5 nM and 6.3 nM
c1ccc(CC2=NCCN2)cc1 [Tolazoline]	3200 nM	450 nM and 120 nM and 890 nM and 500 nM
